These results are taken from patent US20030059878A1, “Novel purinoceptor and gene thereof” (TANABE SEIYAKU CO., LTD, priority 2001, published 2003).

This experiment concerns the target T1, fusion protein of TG0022 protein and Giαl (^351Cys→Ile) (Homo sapiens, UniProt P63096+Q9BPV8, C351I).
T1 construct: made in house; host or cells: Sf9 (Spodoptera frugiperda) insect cells, baculovirus vector pVL1392; membrane fraction
Description: [35S]GTPγS binding to membrane fraction containing fusion protein of TG0022 protein and Giαl (351Cys→Ile). The format is biochemical. The conditions noted are these: Sf9 membrane fraction, TG0022-Giαl (351Cys→Ile) fusion; relative to control without test compound (FIG. 4). From the text: It was assumed that TG0022 protein would be a G protein-coupled receptor as is disclosed in Example 1. Then, by using a membrane fraction containing a fusion protein of TG0022 protein and G protein, the identification of ligand was done by a method of detecting a ligand-dependent binding with GTPγS (guanosine 5′-O-(3-thiotriphosphate)) (Wenzel-Seifert et al., Mol. Pharmacol., Vol. 58, pp. 954-966, 2000; Bahia et al., Biochemistry, Vol. 37, pp. 11555-11562, 1998).
The Sf9 cells were inoculated in a 10 cm plate which was coated with collagen so as to be about 70% confluency, and thereto were added Virus Solution III obtained above (100 μl) and a medium (12 ml), and the mixture was cultivated at 27° C. for 4 days. […]
The membrane fraction obtained in the above (2) (450 μl) was suspended into a reaction buffer (7.54 ml), and thereto was added GDP (10 mM, 10 μl). […] The filter was washed with a cooled reaction buffer (200 μl) three times, and the amount of [^35S]GTPγS (amount bound to the membrane fraction) on the filter was measured by a liquid scintillator. […] GTPγS was calculated by reducting an amount of non-specifically bound [^35S] GTPγS (which was measured in the presence of 10 μM GTPγS) from the amount of [^35S]GTPγS obtained above.

T1 sequence (Q9BPV8+P63096 fused P63096:C351I): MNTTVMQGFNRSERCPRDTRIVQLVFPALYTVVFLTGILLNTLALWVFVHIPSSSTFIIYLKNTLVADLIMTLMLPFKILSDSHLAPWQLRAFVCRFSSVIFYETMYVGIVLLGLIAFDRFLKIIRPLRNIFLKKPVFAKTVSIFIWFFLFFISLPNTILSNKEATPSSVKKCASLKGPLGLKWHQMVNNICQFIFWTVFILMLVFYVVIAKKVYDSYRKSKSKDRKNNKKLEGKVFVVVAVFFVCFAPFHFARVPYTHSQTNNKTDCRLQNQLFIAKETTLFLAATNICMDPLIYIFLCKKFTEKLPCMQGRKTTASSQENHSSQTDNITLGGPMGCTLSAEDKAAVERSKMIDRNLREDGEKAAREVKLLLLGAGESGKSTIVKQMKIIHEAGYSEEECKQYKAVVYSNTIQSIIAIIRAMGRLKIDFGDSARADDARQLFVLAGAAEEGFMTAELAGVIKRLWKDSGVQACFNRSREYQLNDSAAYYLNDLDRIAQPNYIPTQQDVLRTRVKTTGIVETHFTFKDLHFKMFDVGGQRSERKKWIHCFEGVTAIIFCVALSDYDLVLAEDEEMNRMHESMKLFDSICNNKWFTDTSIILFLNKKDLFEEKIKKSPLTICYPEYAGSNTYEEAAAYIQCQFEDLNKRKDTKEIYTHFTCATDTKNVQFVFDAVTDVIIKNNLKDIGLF

As for `Nc1ncnc2c1ncn2[C@@H]1O[C@H](COP(=O)(O)OP(=O)(O)O)[C@@H](O)[C@H]1O` [ADP], the “specific binding amount of [^35S] GTPγS” value is reported as “increased dependent on the concentration”.
The value for `Nc1ncnc2c1ncn2[C@@H]1O[C@H](COP(=O)(O)OP(=O)(O)OP(=O)(O)O)[C@@H](O)[C@H]1O` [ATP] was “increased dependent on the concentration”.
